Each structure is given as a SMILES string.

The target in this assay is T1, cannabinoid receptor 1 (CB1) (Homo sapiens, UniProt P21554).
T1 construct: gene CNR1; human recombinant receptor expressed in Chem-1 cells
The assay can be described thus: radioligand displacement binding assay. Type of assay: cell-based. In general terms: Displacement assays read how much labelled ligand stays bound in the presence of the test substance.

T1 sequence (P21554 whole entry): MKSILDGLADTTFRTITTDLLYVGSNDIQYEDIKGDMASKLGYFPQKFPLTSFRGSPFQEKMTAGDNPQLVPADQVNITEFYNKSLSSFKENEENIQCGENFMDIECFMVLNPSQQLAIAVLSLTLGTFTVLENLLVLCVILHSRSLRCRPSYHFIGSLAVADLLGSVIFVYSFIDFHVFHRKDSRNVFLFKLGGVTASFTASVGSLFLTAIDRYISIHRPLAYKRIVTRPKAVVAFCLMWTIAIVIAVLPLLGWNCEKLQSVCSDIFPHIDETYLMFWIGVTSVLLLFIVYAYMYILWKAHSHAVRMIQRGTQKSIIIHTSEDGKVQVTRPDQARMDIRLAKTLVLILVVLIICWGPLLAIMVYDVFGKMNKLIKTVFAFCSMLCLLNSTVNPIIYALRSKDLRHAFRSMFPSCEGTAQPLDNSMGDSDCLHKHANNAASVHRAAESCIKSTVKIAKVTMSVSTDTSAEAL

What is called Ki is the equilibrium dissociation constant of an inhibitor or competing ligand from its target. Low values mean higher affinity, high ones lower affinity. `O=c1c(-c2ccc(O)cc2)coc2cc(O)cc(O)c12` [genistein] yielded a Ki of 0.14 µM. This counts as sub-micromolar.
